Assay results: patent US11389456B2, “Compounds and methods for treating oxalate-related diseases” (OxaluRx, Inc., priority 2018, dated 2022)
Values after ≈ are worked out from the molar mass of the structure shown.

Assays:
[1] = Solubility in phosphate buffered saline (PBS), pH 7.4; format: physicochemical; conditions: phosphate buffer (PBS), aqueous buffer, kinetic from dmso stock; phosphate buffered saline pH 7.4, 1% DMSO, 1 hour shaking at room temperature
Protocol: (§1) For testing compound solubility in phosphate buffered saline (PBS), compound stock solutions were prepared at 10 mM in 100% DMSO. For testing in aqueous solution, the phosphate buffer was replaced with deionized, distilled water. Eleven grams Na2HPO4 (FW: 141.96 g/mol) and 3.5 g NaH2PO4.2H2O (FW: 156.03 g/mol) was added to 1 L Milli-Q water and adjusted to a pH to 7.4 with phosphoric acid or sodium hydroxide. For incubation, media were preheated to 37° C. Eight μL aliquots of reference and test compound stock solutions (10 mM) were added into 792 μL of 100 mM phosphate buffer (pH 7.4). The final DMSO concentration was 1%. Sample tubes were shaken for 1 hour at 1000 rpm at room temperature.
(§2) The calibration curve was prepared with 300-μM spiking solution (SS) in MeOH:acetonitrile (4:1). Six μL of 10 mM compound was added in 194 μL MeOH/acetonitrile (4:1). Samples were centrifuged for 10 minutes at 12,000 rpm to precipitate undissolved particles. Supernatants were transferred to a new tube or plate and dilute 10-fold and 100-fold with 100 mM buffer. Samples were prepared for LC-MS/MS analysis by adding 5 μL each sample (undiluted, 10-fold diluted, and 100-fold diluted) and 5 μL of standard curve samples to 95 μL of acetonitrile (containing internal standard).

[2] = target: recombinant full-length human hydroxyacid oxidase 1 (HAO1), the equivalent of hGOX (Homo sapiens (Human), UniProt Q9UJM8); assay: In-vitro human glycolate oxidase (hGOX) assay (Amplex red/HRP fluorescence); format: biochemical
Sequence of recombinant full-length human hydroxyacid oxidase 1 (HAO1), the equivalent of hGOX (Q9UJM8 whole entry): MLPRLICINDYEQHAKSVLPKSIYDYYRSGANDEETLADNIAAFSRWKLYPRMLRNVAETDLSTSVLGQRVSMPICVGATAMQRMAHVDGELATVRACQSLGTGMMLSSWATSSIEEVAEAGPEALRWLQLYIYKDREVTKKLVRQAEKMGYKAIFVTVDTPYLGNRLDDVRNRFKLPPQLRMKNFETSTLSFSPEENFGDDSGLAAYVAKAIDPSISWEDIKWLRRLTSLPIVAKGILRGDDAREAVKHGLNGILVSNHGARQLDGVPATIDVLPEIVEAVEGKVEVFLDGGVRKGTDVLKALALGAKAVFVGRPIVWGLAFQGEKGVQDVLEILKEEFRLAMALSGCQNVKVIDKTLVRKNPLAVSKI
Protocol: Biological Activity Assay: In-Vitro Human Glycolate Oxidase (hGOX) Assay
The in-vitro glycolate oxidase assay was performed using recombinant full-length human hydroxyacid oxidase 1 (HAO1), the equivalent of hGOX. […] Purified HAO1 was dissolved in assay buffer consisting of 10 mM NaCl, 110 mM KCl, 2 mM MgCl2, 50 mM HEPES (pH 7.4) and 0.01% Triton™ X-100.

[3] = Stability in human plasma; format: in vitro ADME; conditions: read-out: Plasma Stability T1/2
Protocol: Stability in Human Plasma.
Stock compounds were prepared for testing the stability in human plasma. First, 0.05 M sodium phosphate and 0.07 M NaCl buffer, pH 7.4, were pre-heated. In deionized water, 14.505 g/L Na2HPO 12H2O, 1.483 g/L NaH2PO4.2H2O and 4.095 g/L NaCl were dissolved. The basic solution was titrated with the phosphoric acid to pH 7.40. Frozen plasma was quickly thawed at 37° C. The plasma was centrifuged at 3,000 rpm for 8 minutes to remove clots, then pipetted and pooled as the plasma stock for the experiment. Only plasma within the range of pH 7.4 to pH 8 was used. If higher than pH 8, the plasma was discarded. The initial pH of the plasma was not adjusted to pH 7.4 with acid or by bubbling with carbon dioxide. By using a 5% carbon dioxide incubator and PBS buffer, a pH of 7.4 will be reached after the 4-hour equilibrium dialysis time. Plasma was iced until use.
Spiking solution A with 0.5 mM testing compounds was prepared by adding 10 μL of 10 mM test compounds stock solution to 190 μL DMSO. Spiking solution B with 0.02 mM testing compound was prepared by adding 40 μL of spiking solution A to 960 μL of […] sodium phosphate buffer with 0.5% BSA. The plasma and spiking solution B were prewarmed at 37° C. for 5 minutes. Ten μL of pre-warmed spiking solution B was added into the wells designated for all the time points (5, 15, 30, 45, 60 minutes). For the 0-minute timepoint, 400 μL acetonitrile containing internal standard were added to the wells of 0-minute plate and then 90 μL plasma were added. For the other timepoints, 90 μL of pre-warmed plasma were added into the wells (0, 5, 15, 30, 45, 60 minutes) and the timing was started. At 5, 15, 30, 45, 60 minutes, 400 μL acetonitrile containing internal standard were added to the wells of corresponding plates, respectively, to stop the reaction. After quenching, the plates were shaken on a vibrator (IKA, MTS 2/4) for 10 minutes at 600 rpm and then centrifuged at 5594×g for 15 minutes (Thermo Multifuge×3R). Fifty μL of supernatant was transferred from each well into a 96-well sample plate containing 50 μL ultra-pure water (Millipore, ZMQS50F01) for LC/MS analysis.

[4] = Metabolic stability in human liver microsomal preparation; format: in vitro ADME; conditions: pH 7.4, human liver microsomes, NADPH, 37° C.; for half-life at 1 μM: 0-45 min, read-out: Metabolic Stability t1/2
Protocol: For evaluating the metabolic stability in human liver microsomal preparation, three buffers were prepared. Buffer A had 1.0 L of 0.1 M monobasic potassium phosphate buffer containing 1.0 mM EDTA. Buffer B had 1.0 L of 0.1 M dibasic potassium phosphate buffer containing 1.0 mM EDTA. Buffer C had 0.1 M potassium phosphate buffer, 1.0 mM EDTA, adjusted to a pH 7.4 via titrating 700 mL buffer B with buffer A. Reference compound (ketanserin) and test compounds spiking solutions (500 μM) were prepared by adding 10 μL of 10 mM DMSO stock compound solution into 190 μL acetonitrile. A volume of 1.5 μL 500 μM spiking solution and 18.75 μL 20 mg/mL human liver microsomes were added into 479.75 μL of Buffer C on ice. A stock solution of 6 mM NADPH was prepared by dissolving NADPH into Buffer C.
Wells on an assay plate were iced and filled with 30 μL 1.5-μM spiking solution containing 0.75 mg/mL microsomes solution and designated for different timepoints (0-, 5-, 15-, 30-, 45-min). For the 0-min timepoint, 135 μL acetonitrile containing internal standard were added followed by 15 μL of NADPH stock solution (6 mM). All other plates were preincubated at 37° C. for 5 minutes and 15 μL NADPH stock solution (6 mM) were added to the plates to start the reaction. At 5-min, 15-min, 30-min, and 45-min, 135 μL acetonitrile containing internal standard were added to the wells of corresponding plates, respectively, to stop the reaction. After quenching, the plates were shaken on the vibrator (IKA, MTS 2/4) for 10 min at 600 rpm and then centrifuged at 5594×g for 15 minutes (Thermo Multifuge×3R). Fifty μL supernatant from each well were transported into a 96-well sample plate containing 50 μL of ultra-pure water (Millipore, ZMQS50F01) for LC/MS analysis.

[5] = Protein binding (plasma equilibrium dialysis); format: in vitro ADME; conditions: 5 hours at 37° C.; for fraction unbound at 5 h, 1 μM: read-out: Protein Binding Fraction Bound (converted)
Protocol: For testing protein binding of stock compounds solubilized in DMSO, spiking solutions of test and reference compounds were prepared. Solution A (0.5 mM) was prepared by adding 10 μL of 10 mM stock solution into 190 μL of DMSO. Solution B (0.02 mM) was prepared by adding 8 μL of Solution A into 192 μL of 0.05 M sodium phosphate buffer. The final DMSO concentration in Solution B was 4%.
To prepare test and reference compounds in plasma, a 96-well plate with 380 μL aliquots of plasma in the wells designed for plasma and buffer, respectively. Twenty μL of Solution B (0.02 mM of test and reference compounds) were spiked into the pre-loaded plasma in the 96-well plate. The final test concentration is 1 μM containing 0.2% DMSO.
For dialysis sample loading a plasma again buffer system was prepared by applying aliquots of 100 μL of blank dialysis buffer to the receiver side of dialysis chambers and then applying aliquots of 100 μL of the plasma spiked with test and reference compounds to the donor side of the dialysis chamber. A 25-μL aliquot of the plasma spiked with test and reference compounds was added into a 96-well sample preparation plate as T″0″ plasma samples. Aliquots were mixed with the same volume of blank buffer (50:50, volume:volume). Samples were quenched with 200 μL of acetonitrile containing internal standard. The dialysis block was covered and a shaken at 60 rpm for 5 hours at 37° C.
After a 5-hour incubation, dialyzed samples were prepared from 25-μL aliquots from both the donor and receiver sides of the dialysis apparatus into new sample preparation plates. The aliquots were mixed with same volume of opposite matrixes. The samples were quenched with 200 μL acetonitrile containing internal standard. All 0-hour and 5-hour samples were vortexed at 600 rpm for 10 min followed by centrifugation at 5594×g for 15 minutes (Thermo Multifuge×3R). Fifty μL of the supernatants were transferred to anew 96-well plate and mixed with 50 μL Milli-Q water. The sample plate was covered and frozen at −20° C. until LC/MS/MS analysis.

[6] = Solubility in aqueous solution (deionized, distilled water); format: physicochemical; conditions: kinetic from dmso stock, 1% DMSO, read-out: Aqueous Solubility H2O
Protocol: as §1, §2

| SMILES | solubility at 1 h [1] [µM] | IC50 [2] [nM] | half-life at 2 μM [3] [h] | CLint scaled at 1 μM [4] [mL/min/kg] | half-life at 1 μM [4] [h] | recovery at 5 h, 1 μM [5] [%] | solubility at 1 h [6] [µM] | fraction unbound at 5 h, 1 μM [5] |
| --- | --- | --- | --- | --- | --- | --- | --- | --- |
| O=C(O)c1nn[nH]c1Oc1ccc(-c2ccccc2)cc1 [Example I-150, 5-([1,1′-Biphenyl]-4-yloxy)-1H-1,2,3-triazole-4-carboxylic acid] | 95.7 (≈ 26.9 µg/mL) | 23 | 0.747 | 3.04 | 8.78 | 100 | 83.1 (≈ 23.4 µg/mL) | – |
| O=C(O)c1nn[nH]c1Oc1cccc(-c2ccc3ccccc3c2)c1 [Example I-178, 5-(3-(Naphthalen-2-yl)phenoxy)-1H-1,2,3-triazole-4-carboxylic acid] | 97.9 (≈ 32.4 µg/mL) | 13000 | 0.985 | 7.08 | 4.09 | 109 | 83.4 (≈ 27.6 µg/mL) | – |
| O=C(O)c1nn[nH]c1Oc1cccc(C2CCCC2)c1 [Example I-267, 5-(3-Cyclopentylphenoxy)-1H-1,2,3-triazole-4-carboxylic acid] | 79.8 (≈ 21.8 µg/mL) | 35 | 1.15 | < 0.15 | > 83.3 | 113 | 82.6 (≈ 22.6 µg/mL) | – |
| CC(C)Cc1ccc(Oc2[nH]nnc2C(=O)O)cc1 [Example I-299, 5-(4-Isobutylphenoxy)-1H-1,2,3-triazole-4-carboxylic acid] | 104 (≈ 27.1 µg/mL) | 33 | 1.22 | 11.3 | 2.55 | 114 | 98.4 (≈ 25.7 µg/mL) | 0.002 |
| O=C(O)c1nn[nH]c1Oc1ccc(Cl)cc1 [Example I-033, 5-(4-Chlorophenoxy)-1H-1,2,3-triazole-4-carboxylic acid] | 121 (≈ 29 µg/mL) | 67 | 1.26 | < 0.15 | > 83.3 | 123 | 108 (≈ 25.8 µg/mL) | – |
| O=C(O)c1nn[nH]c1Oc1cccc(C2CCC2)c1 [Example I-279, 5-(3-Cyclobutylphenoxy)-1H-1,2,3-triazole-4-carboxylic acid] | 112 (≈ 29.1 µg/mL) | 32 | 2.61 | 4.98 | 5.82 | 98.2 | 111 (≈ 28.7 µg/mL) | – |
| O=C(O)c1nn[nH]c1Sc1ccc(-c2ccccc2)cc1 [Example I-128, 5-([1,1′-Biphenyl]-4-ylthio)-1H-1,2,3-triazole-4-carboxylic acid] | 122 (≈ 36.4 µg/mL) | 227 | 0.755 | 10.1 | 2.87 | 126 | 106 (≈ 31.5 µg/mL) | – |
| C=Cc1ccc(Oc2[nH]nnc2C(=O)O)cc1 [Example I-285, 5-(4-Vinylphenoxy)-1H-1,2,3-triazole-4-carboxylic acid] | 101 (≈ 23.4 µg/mL) | 38 | 8.02 | < 0.15 | > 83.3 | 98.8 | 97.6 (≈ 22.6 µg/mL) | 0.012 |
| O=C(O)c1nn[nH]c1Oc1cccc(C2CCCCC2)c1 [Example I-268, 5-(3-Cyclohexylphenoxy)-1H-1,2,3-triazole-4-carboxylic acid] | 97.6 (≈ 28 µg/mL) | 51 | 1.84 | 84.2 | 0.344 | 106 | 111 (≈ 31.9 µg/mL) | – |
